According to patent publication US8648035B2 (priority 2007, dated 2014):
pIC50: −log10 of the molar value.

Experiments:
[1] = test system: E. coli cell-free transcription-translation system; type: biochemical; conditions: for pIC50: read-out: IC50 for inhibition of protein synthesis (firefly luciferase)
[2] = test system: E. coli cell-free transcription-translation system; type: biochemical; conditions: bacterial system

Substance	inhibition of synthesis of GFP [1]	pIC50 [1]	combination effect with antibiotic on inhibition of protein synthesis ([2]; combination with streptomycin or other related antibiotics)	increase of potency in inhibiting protein synthesis ([2]; in the presence of 3 μM streptomycin) [fold]	stimulation of protein synthesis (luciferase) [1] [%]
AGAAMSH [BLS15]	shown to inhibit synthesis of GFP	4.82	synergistic action	25	–
SYPDLHL [BLS25]	–	–	–	–	20
AMSAPIP [BLS18]	–	3.86	–	–	–
SILPYPY [BLS26]	–	–	–	–	20
